Experimental data reported in patent US8263606B2 (Xenon Pharmaceuticals Inc., priority 2008, dated 2012).

Tests used:
[1] = molecular target: CYP3A4 (Homo sapiens, UniProt P08684); test: Cytochrome P450 (CYP450) Inhibition Assay, CYP3A4 (Vivid fluorescence, BOMCC substrate); conditions: human, P450 Baculosomes (recombinant CYP3A4), probe BOMCC (Vivid substrate)
[2] = test system: sodium channel; test: Guanidine influx assay (14C-guanidine radiotracer flux, in vitro); type: cell-based, human or rat; conditions: guanidine influx assay using a known cell line that expresses a sodium channel
Procedure, shortened: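 Radiotracer read-out: intracellular 14C-guanidine counted after washing with guanidine-supplemented low-sodium buffer. Cells expressing human or rat channels get test agent plus aconitine activator and tracer, incubated at ambient temperature. Dilution series centred on 1 μM; IC50 by sigmoidal dose-response fit.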

Sequence of CYP3A4 (P08684 whole entry): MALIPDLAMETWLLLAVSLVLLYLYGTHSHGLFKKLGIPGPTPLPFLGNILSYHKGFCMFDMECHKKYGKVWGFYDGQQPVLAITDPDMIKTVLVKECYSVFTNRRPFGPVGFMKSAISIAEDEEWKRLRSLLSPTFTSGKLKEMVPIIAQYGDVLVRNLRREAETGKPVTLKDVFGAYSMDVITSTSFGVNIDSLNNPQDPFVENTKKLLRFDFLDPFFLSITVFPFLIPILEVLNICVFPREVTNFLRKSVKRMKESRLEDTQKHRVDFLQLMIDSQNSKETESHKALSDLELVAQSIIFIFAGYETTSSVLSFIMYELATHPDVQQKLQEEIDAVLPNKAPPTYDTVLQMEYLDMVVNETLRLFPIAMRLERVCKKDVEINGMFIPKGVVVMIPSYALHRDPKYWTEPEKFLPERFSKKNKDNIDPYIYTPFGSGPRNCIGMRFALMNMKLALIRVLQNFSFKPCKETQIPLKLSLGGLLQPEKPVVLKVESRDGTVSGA

| inhibition at 10 µM [1] [%] | IC50 ([2]; activity level class) [µM] | IC50 [2] [µM] | Structure (SMILES) |
| --- | --- | --- | --- |
| < 50 | 0.001 to 0.1 |  | COc1ccc2c(c1)OCC21C(=O)N(CC2CCCCO2)c2ccccc21 (centres unmarked) [Example 9.36, 6-methoxy-1′-(tetrahydro-2H-pyran-2-ylmethyl)spiro[1-benzofuran-3,3′-indol]-2′(1′H)-one] |
| > 50 | 1 to 10 |  | N#Cc1cc2c(cc1F)OCC21C(=O)N(Cc2ccccc2C(F)(F)F)c2ccccc21 (centres unmarked) [Example 9.50, 6-fluoro-2′-oxo-1′-[2-(trifluoromethyl)benzyl]-1′,2′-dihydrospiro[1-benzofuran-3,3′-indole]-5-carbonitrile] |
| < 50 |  | 0.1 to 1 | COCCOCCN1C(=O)C2(COc3cc4onc(C)c4cc32)c2ccccc21 (centres unmarked) [Example 9.54, 1′-[2-(2-methoxyethoxy)ethyl]-3-methylspiro[furo[3,2-f][1,2]benzisoxazole-5,3′-indol]-2′(1′H)-one] |
| < 50 |  | 0.1 to 1 | O=C1N(Cc2ccccn2)c2ccccc2C12COc1cc(F)c(F)cc12 (centres unmarked) [Example 9.64, 5,6-difluoro-1′-(pyridin-2-ylmethyl)spiro[1-benzofuran-3,3′-indol]-2′(1′H)-one] |
| < 50 |  | 1 to 10 | O=C1N(CC2CCOCC2)c2ccccc2C12COc1cc(F)c(F)cc12 (centres unmarked) [Example 9.65, 5,6-difluoro-1′-(tetrahydro-2H-pyran-4-ylmethyl)spiro[1-benzofuran-3,3′-indol]-2′(1′H)-one] |
| < 50 |  | 0.001 to 0.1 | COCCOCCN1C(=O)[C@@]2(COc3cc4c(cc32)OCCO4)c2ccccc21 [Example 9.70, (8S)-1′-[2-(2-methoxyethoxy)ethyl]-2,3-dihydrospiro[furo[2,3-g][1,4]benzodioxine-8,3′-indol]-2′(1′H)-one] |
| < 50 |  | 0.1 to 1 | COCCOCCN1C(=O)C2(COc3cc(OCCOC)ccc32)c2ccccc21 (centres unmarked) [Example 9.75, 6-(2-methoxyethoxy)-1′-[2-(2-methoxyethoxy)ethyl]spiro[1-benzofuran-3,3′-indol]-2′(1′H)-one] |
| < 50 |  | 0.1 to 1 | COCCOCCN1C(=O)C2(COc3ccc(OCCOC)cc32)c2ccccc21 (centres unmarked) [Example 9.76, 5-(2-methoxyethoxy)-1′-[2-(2-methoxyethoxy)ethyl]spiro[1-benzofuran-3,3′-indol]-2′(1′H)-one] |
| > 50 |  | 0.001 to 0.1 | O=C1N(Cc2cnc(Cl)s2)c2ccccc2C12COc1cc3c(cc12)OCO3 (centres unmarked) [Example 11, 1′-[(2-chloro-1,3-thiazol-5-yl)methyl]spiro[furo[2,3-f][1,3]benzodioxole-7,3′-indol]-2′(1′H)-one] |
| < 50 |  | 1 to 10 | O=C1N(CC2CCNCC2)c2ccccc2C12COc1cc3c(cc12)CCO3 (centres unmarked) [Example 11.5, 1-(piperidin-4-ylmethyl)-5,6-dihydrospiro[benzo[1,2-b:5,4-b′]difuran-3,3′-indol]-2′(1′H)-one] |
| > 50 |  | 1 to 10 | CC(C)N1CCC(CN2C(=O)C3(COc4cc5c(cc43)CCO5)c3ccccc32)CC1 (centres unmarked) [Example 11.6, 1′-{[1-(1-methylethyl)piperidin-4-yl]methyl}-5,6-dihydrospiro[benzo[1,2-b:5,4-b′]difuran-3,3′-indol]-2′(1′H)-one] |
| > 50 |  | 1 to 10 | CCN1CCC(CN2C(=O)C3(COc4cc5c(cc43)CCO5)c3ccccc32)CC1 (centres unmarked) [Example 11.8, 1-[(1-ethylpiperidin-4-yl)methyl]-5,6-dihydrospiro[benzo[1,2-b:5,4-b′]difuran-3,3′-indol]-2′(1′H)-one] |
| > 50 |  | 0.1 to 1 | O=C1N(Cc2ccc(-c3ccncc3)o2)c2ccccc2C12COc1cc3c(cc12)CCO3 (centres unmarked) [Example 11.15, 1′-[(5-pyridin-4-ylfuran-2-yl)methyl]-5,6-dihydrospiro[benzo[1,2-b:5,4-b′]difuran-3,3′-indol]-2′(1′H)-one] |
| > 50 |  | 0.1 to 1 | O=C1N(Cc2ccc(-c3cccnc3)cc2)c2ccccc2C12COc1cc3c(cc12)CCO3 (centres unmarked) [Example 11.16, 1′-(4-pyridin-3-ylbenzyl)-5,6-dihydrospiro[benzo[1,2-b:5,4-b′]difuran-3,3′-indol]-2′(1′H)-one] |
| < 50 |  | 0.1 to 1 | O=C1N(Cc2ccc(-c3ccccc3F)cc2)c2ccccc2C12COc1cc3c(cc12)CCO3 (centres unmarked) [Example 11.17, 1′-[(2′-fluorobiphenyl-4-yl)methyl]-5,6-dihydrospiro[benzo[1,2-b:5,4-b′]difuran-3,3′-indol]-2′(1′H)-one] |
| < 50 |  | 1 to 10 | O=C(O)c1ccccc1CN1C(=O)C2(COc3cc4c(cc32)CCO4)c2ccccc21 (centres unmarked) [Example 11.30, 2-[(2′-oxo-5,6-dihydrospiro[benzo[1,2-b:5,4-b′]difuran-3,3′-indol]-1′(2′H)-yl)methyl]benzoic acid] |

| inhibition at 10 µM [1] [%] | IC50 ([2]; activity level class) [µM] | IC50 [2] [µM] | Structure (SMILES) |
| --- | --- | --- | --- |
| < 50 |  | 0.1 to 1 | O=C(O)c1ccc(CN2C(=O)C3(COc4cc5c(cc43)CCO5)c3ccccc32)cc1 (centres unmarked) [Example 11.31, 4-[(2′-oxo-5,6-dihydrospiro[benzo[1,2-b:5,4-b′]difuran-3,3′-indol]-1′(2′H)-yl)methyl]benzoic acid] |
| < 50 |  | 0.1 to 1 | N#Cc1cccc2c1C1(COc3cc4c(cc31)CCO4)C(=O)N2C[C@H]1CCCO1 (stereo partly drawn) [Example 11.35, 2′-oxo-1′-[(2R)-tetrahydrofuran-2-ylmethyl]-1′,2′,5,6-tetrahydrospiro[benzo[1,2-b:5,4-b′]difuran-3,3′-indole]-4′-carbonitrile] |
| < 50 |  | 1 to 10 | CN(C)Cc1cccc2c1C1(COc3cc4c(cc31)CCO4)C(=O)N2C[C@H]1CCCO1 (stereo partly drawn) [Example 11.37, 4′-[(dimethylamino)methyl]-1′-[(2R)-tetrahydrofuran-2-ylmethyl]-5,6-dihydrospiro[benzo[1,2-b:5,4-b′]difuran-3,3′-indol]-2′(1′H)-one] |
| < 50 |  | 1 to 10 | O=C1N(C[C@H]2CCCO2)c2cccc(CN3CCCC3)c2C12COc1cc3c(cc12)CCO3 (stereo partly drawn) [Example 11.38, 4′-(pyrrolidin-1-ylmethyl)-1′-[(2R)-tetrahydrofuran-2-ylmethyl]-5,6-dihydrospiro[benzo[1,2-b:5,4-b′]difuran-3,3′-indol]-2′(1′H)-one] |
| > 50 |  | 0.1 to 1 | CN1CCOC(CN2C(=O)C3(COc4cc5c(cc43)CCO5)c3ccccc32)C1 (centres unmarked) [Example 11.41, 1′-[(4-methylmorpholin-2-yl)methyl]-5,6-dihydrospiro[benzo[1,2-b:5,4-b′]difuran-3,3′-indol]-2′(1′H)-one] |
| > 50 |  | 1 to 10 | CC(C)N1CCOC(CN2C(=O)C3(COc4cc5c(cc43)CCO5)c3ccccc32)C1 (centres unmarked) [Example 11.42, 1′-{[4-(1-methylethyl)morpholin-2-yl]methyl}-5,6-dihydrospiro[benzo[1,2-b:5,4-b′]difuran-3,3′-indol]-2′(1′H)-one] |
| > 50 |  | 1 to 10 | O=C1N(Cc2ccc(-c3nnn[nH]3)cc2)c2ccccc2C12COc1cc3c(cc12)CCO3 (centres unmarked) [Example 11.44, 1′-[4-(1H-tetrazol-5-yl)benzyl]-5,6-dihydrospiro[benzo[1,2-b:5,4-b′]difuran-3,3′-indol]-2′(1′H)-one] |
| > 50 |  | 0.1 to 1 | O=C1N(Cc2ccc(N3CCOCC3)cc2)c2ccccc2C12COc1cc3c(cc12)CCO3 (centres unmarked) [Example 11.46, t-(4-morpholin-4-ylbenzyl)-5,6-dihydrospiro[benzo[1,2-b:5,4-b′]difuran-3,3′-indol]-2′(1′H)-one] |
| < 50 |  | 1 to 10 | CS(=O)(=O)Nc1ccc2c(c1)OCC21C(=O)N(C[C@H]2CCCO2)c2ccccc21 (stereo partly drawn) [Example 11.48, N-{2′-oxo-1′-[(2R)-tetrahydrofuran-2-ylmethyl]-1′,2′-dihydrospiro[1-benzofuran-3,3′-indol]-6-yl}methanesulfonamide] |
| < 50 |  | 0.1 to 1 | CC(C)Oc1ccc2c(c1)OCC21C(=O)N(C[C@H]2CCCO2)c2ccccc21 (stereo partly drawn) [Example 11.54, 6-(1-methylethoxy)-1′-[(2R)-tetrahydrofuran-2-ylmethyl]spiro[1-benzofuran-3,3′-indol]-2′(1′H)-one] |
| < 50 |  | 1 to 10 | O=C1N(CC2CCNC2)c2ccccc2C12COc1cc3c(cc12)CCO3 (centres unmarked) [Example 11.61, 1′-(pyrrolidin-3-ylmethyl)-5,6-dihydrospiro[benzo[1,2-b:5,4-b′]difuran-3,3′-indol]-2′(1′H)-one] |
| > 50 |  | 0.001 to 0.1 | CN1CCN(CN2C(=O)C3(COc4cc5c(cc43)OCO5)c3ccccc32)CC1 (centres unmarked) [Example 11.63, 1′-[(4-methylpiperazin-1-yl)methyl]spiro[furo[2,3-f][1,3]benzodioxole-7,3′-indol]-2′(1′H)-one hydrogen chloride] |
| > 50 |  | 0.1 to 1 | COc1cc2c(cc1C)[C@]1(CO2)C(=O)N(CN2CCN(C)CC2)c2ccccc21 [Example 11.65, (3R)-6-methoxy-5-methyl-1′-[(4-methylpiperazin-1-yl)methyl]spiro[1-benzofuran-3,3′-indol]-2′(1′H)-one hydrogen chloride] |
| > 50 |  | 0.001 to 0.1 | O=C1N(C[C@@H]2CCCO2)c2ccccc2[C@@]12COc1cc3c(cc12)CCO3 [Example 11.68, (3R)-1-[(2S)-tetrahydrofuran-2-ylmethyl]-5,6-dihydrospiro[benzo[1,2-b:5,4-b′]difuran-3,3′-indol]-2′(1′H)-one] |
| > 50 |  | 0.1 to 1 | CS(=O)(=O)Nc1cccc(CN2C(=O)C3(COc4cc5c(cc43)OCCO5)c3ccccc32)c1 (centres unmarked) [Example 11.94, N-{3-[(2′-oxo-2,3-dihydrospiro[furo[2,3-g][1,4]benzodioxine-8,3′-indol]-1′(2′H)-yl)methyl]phenyl}methanesulfonamide] |
